US20140086890A1, “COMPOSITIONS AND METHODS FOR TREATING HYPERPROLIFERATIVE DISORDERS” (priority 2004, published 2014)

What was measured:
RENCA tumor cells = experiment: NK cell susceptibility assay of pre-sensitized RENCA tumor cells; type: cell-based, murine; conditions: for NK cell susceptibility of RENCA (FIG. 8): 14 hours, 10 nM Velcade or 25 ng/ml Depsipeptide, autologous Balb/c NK cells, 4 hour assay; for susceptibility of RENCA tumor cells to NK cell mediated lysis (FIG. 7): pretreated 40 hours, Depsipeptide 25 ng/ml or Velcade 10 nM, NK cells from B10.d2 mouse
Method: (§1) Thereafter, the tumor cells were tested for NK cell susceptibility in a standard cytotoxicity assay. NK cells were purified from splenocytes from a B 10.d2 mouse by negative magnetic bead depletion of T cells, B cells, monocytes and granulocytes. NK cell purity was evaluated by DX5 and CD3 staining by flow cytometry. Purity of NK cells was always between 90-100%.
Cells were thereafter labeled with ^51Cr for 1 hour and tested for susceptibility to NK cell mediated lysis in a standard 4 hour assay. Murine autologous Balb/c NK cells tested against untreated (squares), Velcade (circles) or Depsipeptide (triangles) treated RENCA cell lines (Balb/c in origin).

[1] = test system: human RCC cell lines (JOHW, PORJC, SAUJ and STAR); type: cell-based
Method: (§3) Cells were then plated in a 96-well plate at 4,000 cell/well. Recombinant TRAIL [75-300 ng/ml] or recombinant Fas-ligand [12.5-100 ng/ml] was added to the cells and supernatant was harvested after 16 hours incubation. The level of lysis by TRAIL and Fas-ligand were calculated based on spontaneous and maximum ^51Cr release.

[2] = test system: human renal cell carcinoma (RCC) cell lines JOHW, SAUJ, STAR; experiment: NK cell susceptibility assay of pre-sensitized human RCC cell lines; type: cell-based; conditions: for autologous NK cell susceptibility of human RCC SAUJ or STAR (FIG. 11): 24 hours, 25 ng/ml Depsipeptide or 10 nM Velcade; for allogeneic NK cell susceptibility of human RCC (FIG. 9) / autologous NK cell susceptibility of human RCC (FIG. 10): JOHW, 10 nM Velcade or 25 ng/ml Depsipeptide, 40 hours, 4 hour assay
Method: Cells were thereafter labeled with ^51Cr for 1 hour and tested for susceptibility to allogeneic NK cell mediated lysis in a standard 4 hour assay.
Cells were thereafter labeled with ^51Cr for 1 hour and tested for susceptibility to autologous NK cell mediated lysis in a standard 4 hour assay.
as §1, with “assay. Autologous” for “assay.”, “peripheral blood” for “splenocytes from a B 10.d2 mouse”, “CD56” for “DX5”

human and murine RCC = experiment: 3H thymidine proliferation; type: cell-based; conditions: various concentrations, 72 hours
Method: (§2) Level of apoptosis was evaluated by Annexin-V and 7-AAD staining (upper left chart). Expression of MHC class I was evaluated by flow cytometry by HLA-ABC for human RCC and H-2Dd/Kd for murine RCC (lower left chart). […] Cells were labeled with ^3H thymidine for analysis of proliferation (upper right chart).

[3] = test system: human RCC cell lines (JOHW, PORJC, SAUJ and STAR); type: cell-based; remark: listed apart in the source
Method: as §3

MHC class I = MHC class I expression by flow cytometry; type: cell-based, human and murine; conditions: Depsipeptide 25 ng/ml or Velcade 10 nM, 6-40 hours
Method: as §2

[4] = test system: RCC cell lines (JOHW, SAUJ, STAR, RENCA); experiment: apoptosis by Annexin-V and 7-AAD staining; type: cell-based, human and murine; conditions: Depsipeptide 25 ng/ml or Velcade 10 nM, 6-40 hours
Method: as §2

tumors = conditions: mouse, in vivo; cited from earlier work
MIC-A/B [5] = conditions: cited from earlier work
MIC-A/B [6] = experiment: MIC-A/B expression by flow cytometry; type: cell-based, human; conditions: Depsipeptide 25 ng/ml or Velcade 10 nM, 6-40 hours
HDAC = conditions: cited from earlier work
neoplastic cells = conditions: by reducing levels of c-FLIP; cited from earlier work
[7] = while retaining graft-versus-tumor effects; cited from earlier work

Row | SMILES | NK cell susceptibility of RENCA (FIG. 8) (RENCA tumor cells) | susceptibility of RENCA tumor cells to NK cell mediated lysis (FIG. 7) (RENCA tumor cells) | cell lysis of presensitized RCC cells by TRAIL (FIG. 13) [1] | autologous NK cell susceptibility of human RCC SAUJ or STAR (FIG. 11) [2] | allogeneic NK cell susceptibility of human RCC (FIG. 9) [2] | autologous NK cell susceptibility of human RCC (FIG. 10) [2] | proliferation of RCC cell lines (FIG. 15) (human and murine RCC) | cell lysis of presensitized RCC cells by Fas ligand (FIG. 14) [3] | MHC Class I expression of RCC cell lines (FIG. 15) (MHC class I) | viability (apoptosis) of RCC cell lines (FIG. 15) [4] | anti-tumor effects: cell growth and formation of tumors in mice models (tumors) | MIC-A/B upon treatment (MIC-A/B [5]) | MIC-A/B expression of human RCC (FIG. 15) (MIC-A/B [6]) | concentrations at which HDAC activity is inhibited (HDAC) | sensitization of neoplastic cells to TRAIL-mediated apoptosis (neoplastic cells) | acute graft-versus-host disease [7]
1 | C/C=C1\NC(=O)[C@H]2CSSCC/C=C/[C@H](CC(=O)N[C@H](C(C)C)C(=O)N2)OC(=O)[C@H](C(C)C)NC1=O [Depsipeptide] | enhanced NK cell susceptibility | more susceptible | Increased cell lysis | enhanced autologous NK cell susceptibility | enhanced allogeneic NK cell susceptibility | enhanced autologous NK cell susceptibility | no differences | Increased cell lysis | no differences | no differences | anti-tumor effects | induction | no differences |  |  | 
2 | C/C=C1\NC(=O)[C@H]2CSSCC/C=C/[C@H](CC(=O)N[C@H](C(C)C)C(=O)N2)OC(=O)[C@H](C(C)C)NC1=O [FR901228] |  |  |  |  |  |  |  |  |  |  |  |  |  | micromolar concentrations |  | 
3 | CC(C)C[C@H](NC(=O)[C@H](Cc1ccccc1)NC(=O)c1cnccn1)B(O)O [PS-341] |  |  |  |  |  |  |  |  |  |  |  |  |  |  | sensitizes | 
4 | CC(C)C[C@H](NC(=O)[C@H](Cc1ccccc1)NC(=O)c1cnccn1)B(O)O [Velcade] | enhanced NK cell susceptibility | more susceptible |  | enhanced autologous NK cell susceptibility | enhanced allogeneic NK cell susceptibility | enhanced autologous NK cell susceptibility | no differences |  | no differences | no differences |  |  |  |  |  | inhibits
